Six molecules from ChEMBL document CHEMBL1201862, “PubChem BioAssay data set” (2004) can be followed below.

Assay [1] addresses T1, Caspase-3 (Homo sapiens, UniProt P42574).
T1 sequence (P42574 whole entry): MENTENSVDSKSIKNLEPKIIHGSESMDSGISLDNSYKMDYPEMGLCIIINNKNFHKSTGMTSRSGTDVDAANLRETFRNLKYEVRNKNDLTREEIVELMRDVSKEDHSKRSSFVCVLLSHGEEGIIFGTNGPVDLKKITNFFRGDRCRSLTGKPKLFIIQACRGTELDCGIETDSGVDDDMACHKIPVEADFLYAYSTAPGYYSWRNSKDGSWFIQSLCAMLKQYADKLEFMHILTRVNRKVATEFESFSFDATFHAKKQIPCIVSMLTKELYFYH
It counts as functional.

The subject of assay [2] is Streptococcus sp. 'group A'. The experiment in a line: growth inhibition of control SK(-) GAS strain, dose response, counter-screen for streptokinase expression inhibitor project, luminescence, kanamycin, BacTiterGlo, confirmation (AID 1900). It counts as functional, organism-based. A general note: A counterscreen serves to expose hits that act by an unwanted route or on another target.

The target in assay [3] is T2, Apoptotic protease-activating factor 1 (Homo sapiens, UniProt O14727).
T2 sequence (O14727 whole entry): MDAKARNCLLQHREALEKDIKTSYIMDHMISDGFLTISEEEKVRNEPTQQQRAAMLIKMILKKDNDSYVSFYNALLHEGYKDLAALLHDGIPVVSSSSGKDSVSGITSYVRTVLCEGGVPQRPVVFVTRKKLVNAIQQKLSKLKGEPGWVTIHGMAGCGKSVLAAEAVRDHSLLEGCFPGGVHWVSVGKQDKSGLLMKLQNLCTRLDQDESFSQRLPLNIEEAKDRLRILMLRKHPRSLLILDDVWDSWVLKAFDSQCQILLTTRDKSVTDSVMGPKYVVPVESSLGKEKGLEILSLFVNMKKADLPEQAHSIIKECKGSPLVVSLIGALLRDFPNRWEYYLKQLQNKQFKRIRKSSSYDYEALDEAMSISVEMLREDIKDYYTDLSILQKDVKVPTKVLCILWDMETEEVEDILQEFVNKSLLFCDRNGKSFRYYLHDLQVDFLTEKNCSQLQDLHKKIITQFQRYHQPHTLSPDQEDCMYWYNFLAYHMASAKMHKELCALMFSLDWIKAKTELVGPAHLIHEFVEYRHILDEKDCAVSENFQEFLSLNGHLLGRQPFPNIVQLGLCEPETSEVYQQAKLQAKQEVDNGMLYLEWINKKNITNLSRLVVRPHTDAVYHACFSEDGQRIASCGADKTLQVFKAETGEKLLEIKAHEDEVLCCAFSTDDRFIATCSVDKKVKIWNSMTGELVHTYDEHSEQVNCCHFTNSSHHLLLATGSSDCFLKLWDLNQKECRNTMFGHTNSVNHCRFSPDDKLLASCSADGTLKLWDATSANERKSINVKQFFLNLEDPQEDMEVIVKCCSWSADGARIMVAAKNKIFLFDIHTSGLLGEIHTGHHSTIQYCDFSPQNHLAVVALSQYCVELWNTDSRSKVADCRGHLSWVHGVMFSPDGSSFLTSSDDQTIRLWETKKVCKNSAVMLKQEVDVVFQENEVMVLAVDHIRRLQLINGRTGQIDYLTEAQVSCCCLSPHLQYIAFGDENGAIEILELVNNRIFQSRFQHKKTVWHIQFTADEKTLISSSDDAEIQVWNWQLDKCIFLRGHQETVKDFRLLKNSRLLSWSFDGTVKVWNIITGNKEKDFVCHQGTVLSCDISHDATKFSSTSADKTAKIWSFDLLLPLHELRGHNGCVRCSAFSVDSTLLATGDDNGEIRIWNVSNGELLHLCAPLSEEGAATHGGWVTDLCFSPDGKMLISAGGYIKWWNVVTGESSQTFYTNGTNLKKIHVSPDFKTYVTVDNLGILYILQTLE
Format: functional.

The target of assay [4] is Mitochondrial peptide methionine sulfoxide reductase (Bos taurus, UniProt P54149). It counts as functional.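 Further: absorbance read-out, biochemical high-throughput dose-response screen for MsrA inhibitors, confirmatory; recombinant bovine MsrA coupled to E. coli TrxB with NADPH and selenocystamine; potency is for inhibitors of MsrA activity on DMSO substrate.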
In assay [5] the target is T3, Tyrosyl-DNA phosphodiesterase 2 (Homo sapiens, UniProt O95551).
T3 sequence (O95551 whole entry): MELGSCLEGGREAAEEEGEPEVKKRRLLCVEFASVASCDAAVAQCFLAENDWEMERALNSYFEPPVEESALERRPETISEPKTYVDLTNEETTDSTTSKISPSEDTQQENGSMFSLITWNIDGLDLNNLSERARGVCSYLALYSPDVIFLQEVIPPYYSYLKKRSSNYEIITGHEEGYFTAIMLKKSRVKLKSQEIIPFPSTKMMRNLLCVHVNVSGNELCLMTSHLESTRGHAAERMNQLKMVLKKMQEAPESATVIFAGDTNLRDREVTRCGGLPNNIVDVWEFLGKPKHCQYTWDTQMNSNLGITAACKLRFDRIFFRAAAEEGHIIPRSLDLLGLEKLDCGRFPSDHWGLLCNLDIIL
Briefly: human TDP2 enzyme inhibitors, dose response, biochemical, epi absorbance, IC50 (AID 743297).

Assay [6] addresses Heat shock protein HSP 90-alpha (Homo sapiens, UniProt P07900). Briefly: Luminescence-based dose response biochemical high throughput screening assay for inhibitors of the Heat Shock Protein 90 (HSP90). [Related pubchem assays: 1831 (Summary AID.), 1846 (Confirmation screen.), 1789 (Primary screen.)].

The term IC50 denotes the concentration at which inhibition is half-maximal. As usually defined, the EC50 is the concentration that produces a half-maximal response.

Active and inactive are the calls of the source.

Chain of Mitochondrial peptide methionine sulfoxide reductase (P54149 whole entry): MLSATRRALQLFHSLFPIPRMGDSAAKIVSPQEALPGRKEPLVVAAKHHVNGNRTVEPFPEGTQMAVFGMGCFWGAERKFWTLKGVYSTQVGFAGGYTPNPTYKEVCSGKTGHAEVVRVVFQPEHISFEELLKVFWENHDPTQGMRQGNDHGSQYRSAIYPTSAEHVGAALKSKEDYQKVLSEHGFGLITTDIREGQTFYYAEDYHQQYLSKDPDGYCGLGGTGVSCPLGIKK

As for `COc1ccc(-c2cc(-c3ccc(C)cc3)[nH]n2)c(O)c1`, in assay [1], the IC50 is 76.5 µM (active). Moreover, the EC50 in assay [2] is 11 µM (active).

For the molecule `Cc1ccccc1NC1=C/C(=N\S(=O)(=O)c2ccc(C(=O)O)cc2)c2ccccc2C1=O`, the IC50 is 1.59 µM (active) in assay [3], 62.4 µM (inactive) in assay [4], 1.41 µM (active) in assay [5] and 0.522 µM (active) in assay [6]. Moreover, the EC50 in assay [2] was 1.67 µM (active).

On to `COC(=O)C[C@]1(C(=O)OC)CN(C#N)N(c2ccc(Cl)cc2)C12c1ccccc1-c1ccccc12`, for which the IC50 in assay [6] is 3.75 µM (active).

Take `CCCCn1c(NC(=O)c2ccco2)c(C(=O)OCC)c2nc3ccccc3nc21`: the IC50 in assay [3] is 13 µM (active); in assay [1], 15.8 µM (active); in assay [5], > 128 µM (inactive).

Turning to `O=C(Nc1ccc(C#Cc2ccccc2)cc1)C1CC1`, in assay [1], the half-maximal inhibitory concentration (IC50) was 43.6 µM (active).

As to `Cc1ccc(NC2=C/C(=N/S(=O)(=O)c3cccs3)c3ccccc3C2=O)cc1`, the 50% inhibitory concentration (IC50) in assay [3] is 0.453 µM (active); in assay [1], 2.1 µM (active); in assay [4] it was 425 µM (inactive); in assay [5], 3.3 µM (active).
